In patent US12220461B2, “Polypeptide-coupled small molecule compound and antiviral application thereof” (Guangzhou Medical University, priority 2023, dated 2025):
Starred links: 1 amine or outer side, 2 acyl side, 3 side chain; linkers in the order of their positions; H or OH if unused. Non-standard residues stand in square brackets, D forms with d. Residues, ends and D or L forms follow the SMILES beside them. ξ: configuration not given here. *: point of attachment. X1 = Cc1ccc(N[*:1])cc1C(=O)[*:2]; X2 = C[C@@H](N*)c1cccc2ccccc12; X3 = S=c1nc(N*)[nH]c2nc[nH]c12; ξR = N=C(N)NCCCC(N)C(=O)O; ξL = CC(C)CC(N)C(=O)O; ξS = NC(CO)C(=O)O

Assays:
293T cells = settings: same concentration, 24 h
Method: 9.1 Plating: 293T cells in logarithmic growth phase are inoculated into a 96-well plate (100 μL/well), triplicate wells are made in each group, and the number of cells in each well is set at 5×10^3. The cells are put in a 5% CO2 incubator at 37° C. for 12 h.
The dosage concentrations are set to 100 μM, 50 μM, 25 μM, 12.5 μM, 6.25 μM and 3.125 μM, and the dosage volume is 2 μL. The control group is added with 2 μL DMSO. Then, they are put in a 5% CO2 incubator at 37° C. for culture.
9.3 After 24 hours, the cells are washed with PBS twice, and then added 100 μL of pre-mixed CCK8 solution (medium: CCK8 working solution=9:1) to each well to avoid introduction of bubbles in the operation. Culture is continued for 2 h in a 5 6% CO2 incubator at 37° C.
9.4 The absorbance D(λ) of each well at the wavelength of 450 nm is determined by the microplate reader. D(λ) values of the negative control group, the control group and the experimental group are analyzed to determine the cell activity. Cell viability reflects the cytotoxicity of the drug. The groups are as follows: • the experimental group (medium containing cells, CCK-8, the drug to be tested); • the control group (medium containing cells, CCK-8, without drug to be tested); and • the negative control group (medium without cells and the substance to be detected, with CCK-8).

SARS-CoV-2 = assay type: cell-based
PLpro = biological target: T1, PLpro (Severe acute respiratory syndrome coronavirus 2, UniProt P0DTD1); test: cell-based; design: species or system SARS-CoV-2
T1 construct: expressed in transfected cells; host or cells: 293T cells

[1] = system: A549 cells, MLE-12 cells and 293T cells

CC(C)CC(NC(=O)C(CCCNC(=N)N)NC(=O)C(N)CO)C(=O)NC(CCCNC(=N)N)C(=O)NCC(=O)NCC(=O)Nc1nc(=S)c2[nH]cnc2[nH]1 (centres unmarked) [RG-6] (H-SRLRGG-X3; configuration not given here)
cytotoxicity (CCK8 cell viability) (293T cells): less cytotoxicity than 6-TG | IC50 for inhibition of CPE induced by SARS-CoV-2 (SARS-CoV-2): lower than 6-TG

Cc1ccc(NC(=O)CNC(=O)CNC(=O)C(CCCNC(=N)N)NC(=O)C(CC(C)C)NC(=O)C(CCCNC(=N)N)NC(=O)C(N)CO)cc1C(=O)N[C@H](C)c1cccc2ccccc12 (some centres unmarked) [RG-17] (H-[ξS][ξR][ξL][ξR]GG[X1]-X2)
IC50 (PLpro): 13.7 µM | cytotoxicity (CCK8 cell viability) [1]: does not affect the cell growth

Cc1ccc(N)cc1C(=O)N[C@H](C)c1cccc2ccccc12 [GRL0617, reference compound]
cytotoxicity (CCK8 cell viability) [1]: great cytotoxicity
